Reference: patent US6242494A, “Substituted β-amino acid inhibitors of methionine aminopeptidase-2” (Abbott Laboratories, priority 1999, dated 2001)
Where a name gives a salt, the structure may show the parent alone.

Target: T1, methionine aminopeptidase-2 (MetAP2) (Homo sapiens, UniProt P50579)
T1 construct: made in house; host or cells: insect cells, baculovirus system (secreted, purified from culture supernatant)
Experiment: Inhibition of MetAP2 enzyme activity (96-well, Met-Ala-Ser substrate, L-amino acid oxidase/peroxidase/ortho-dianisidine, 450 nm)
Type: biochemical
Conditions: pH 7.4, Met-Ala-Ser substrate, 20 minutes

[1] = IC50, recombinant MetAP2 4 μg/mL

T1 sequence (P50579 whole entry): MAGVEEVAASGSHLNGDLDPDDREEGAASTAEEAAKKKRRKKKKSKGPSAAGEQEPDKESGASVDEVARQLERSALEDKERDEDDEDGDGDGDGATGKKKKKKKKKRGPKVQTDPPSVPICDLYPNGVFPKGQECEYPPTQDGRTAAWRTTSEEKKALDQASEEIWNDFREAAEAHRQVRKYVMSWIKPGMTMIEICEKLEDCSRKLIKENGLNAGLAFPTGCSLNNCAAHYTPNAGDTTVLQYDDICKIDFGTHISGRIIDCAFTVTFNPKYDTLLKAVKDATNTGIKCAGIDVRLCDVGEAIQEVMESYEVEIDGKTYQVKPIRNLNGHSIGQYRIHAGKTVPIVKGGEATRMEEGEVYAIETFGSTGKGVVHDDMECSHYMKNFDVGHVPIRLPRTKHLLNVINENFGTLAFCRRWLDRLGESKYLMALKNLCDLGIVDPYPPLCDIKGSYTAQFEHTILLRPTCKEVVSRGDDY

| Structure (SMILES) | IC50 [1] [nM] | IC50 (recombinant MetAP2 4 μg/mL) [nM] |
| --- | --- | --- |
| CCOC(=O)c1csc([C@H](C)NC(=O)C(O)[C@H](N)CC2CCCCC2)n1 (stereo partly drawn) [Example 54, (2RS,3R,1'-S)-N-(4-ethoxycarbonyl-2-(1'-aminoethyl)thizole)-3-amino-2-hydroxy-4-cyclohexyl)butanamide hydrochloride] | 2600 |  |
| CCn1nccc1NC(=O)[C@H](C)NC(=O)C(O)[C@H](N)CC1CCCCC1 (stereo partly drawn) [Example 72, ((2RS,3R)-3-amino-2-hydroxy-4-cyclohexyl)butanoylL-alanyl-(1-ethylpyrazole)amide hydrochloride] | 9200 |  |
| CCOc1ccc(OCC)c(NC(=O)C(O)[C@H](N)CC2CCCCC2)c1 (mixture of isomers) [Example 181, (2RS,3R)-3-amino-4-cyclohexyl-N-(2,5-diethoxyphenyl)-2-hydroxybutanamide hydrochloride] | 9800 |  |
| CCCC[C@H](NC(=O)C(O)[C@H](N)CC1CCCCC1)C(=O)OC (stereo partly drawn) [Example 129, methyl (2RS,3R,2'S)-2-((3-amino-4-cyclohexyl-2-hydroxybutanoyl)amino)hexanoate hydrochloride] |  | 27000 |
| N[C@H](CC1CCCCC1)C(O)C(=O)NCCc1ccc(OCc2ccccc2)c(OCc2ccccc2)c1 (mixture of isomers) [Example 167, (2RS,3R)-3-amino-N-(3,4-bis(benzyloxy)phenethyl)-4-cyclohexyl-2-hydroxybutanamide hydrochloride] | 3300 |  |
| COc1ccc(C(C)(C)C)cc1NC(=O)C(O)[C@H](N)CC1CCCCC1 (mixture of isomers) [Example 182, (2RS,3R)-3-amino-N-(5-(tert-butyl)-2-methoxyphenyl)-4-cyclohexyl-2-hydroxybutanamide hydrochloride] | 8000 |  |
| CCOC(=O)CCNC(=O)C(O)[C@H](N)CC1CCCCC1 (stereo partly drawn) [Example 24, (2RS,3R)-N-(2-(carboethoxy)ethyl)-3-amino-2-hydroxy-4-cyclohexyl-butanamidehydrochloride] | 1000 |  |
| N[C@H](CC1CCCCC1)C(O)C(=O)NC1CCc2ccccc21 (mixture of isomers) [Example 228, (2RS,3R)-3-amino-4-cyclohexyl-N-(2,3-dihydro-1H-inden-1-yl)-2-hydroxybutanamide Hydrochloride] | 930 |  |
| COc1cc(Nc2ccccc2)ccc1NC(=O)C(O)[C@H](N)CC1CCCCC1 (mixture of isomers) [Example 174, (2RS,3R)-3-amino-N-(4-anilino-2-methoxyphenyl)-4-cyclohexyl-2-hydroxybutanamide hydrochloride] | 1500 |  |
| N[C@H](CC1CCCCC1)C(O)C(=O)Nc1ccc2c(c1)OCCO2 (mixture of isomers) [Example 222, (2RS,3R)-3-amino-4-cyclohexyl-N-(2,3-dihydro-1,4-benzodioxin-6-yl)-2-hydroxybutanamide Hydrochloride] | 200 |  |
| C[C@H](NC(=O)C(O)[C@H](N)CC1CCCCC1)C(=O)Nc1ncc(Br)s1 (stereo partly drawn) [Example 70, ((2RS,3R)-3-amino-2-hydroxy-4-cyclohexyl)butanoyl-L-alanyl-(5-bromothizole-2)amide hydrochloride] | 5400 |  |
| N[C@H](CC1CCCCC1)C(O)C(=O)NCC1CCCCC1 (mixture of isomers) [Example 205, (2RS,3R)-3-amino-4-cyclohexyl-N-(cyclohexylmethyl)-2-hydroxybutanamide Hydrochloride] | 2500 |  |
| COc1ccc(CCNC(=O)C(O)[C@H](N)CCSC)cc1 (mixture of isomers) [Example 8, (2RS,3R) N-(2-(4-methoxyphenyl)ethyl)-3-amino-2-hydroxy-5-(methylthio)pentanamide hydrochloride] | 2300 |  |
| N[C@H](CC1CCCCC1)C(O)C(=O)NCc1cccc(Cl)c1 (mixture of isomers) [Example 188, (2RS,3R)-3-amino-N-(3-chlorobenzyl)-4-cyclohexyl-2-hydroxybutanamide hydrochloride] | 1600 |  |
